Consider 2 molecules from patent US10463764B2, “3D tissue-engineered bone marrow for personalized therapy and drug development” (Washington University, priority 2014, dated 2019).

Experiment [1] relates to MM1s cells. Nature of the experiment: Drug survival of MM1s cells in mono- or multi-culture in classic 2D cultures and 3DTEBM, by flow cytometry. The conditions noted are these: Homo sapiens, MM1.S, 24 h. In kind it is cell-based. As to the method:
MM1s-GFP cells (30×10^3 cells/well) were cultured in mono-culture or multi-culture conditions [CD138^− stromal cells-DiD (10×10^3 cells/well), HUVECs-DiD (10×10^3 cells/well), and fibronectin 100 ng/ml)] in 3DTEBM and classic 2D cultures. After 2 h gelification of 3DTEBM or adhesion in 2D cultures (cells were culture in 50 μl), 50 ul of RPMI completed media was added on top of 3DTEBM. Then, 50 μl of bortezomib (0-30 nM), carfilzomib (0, 10 nM), or melphalan (0, 1 μM) solutions were added on top of 2D cultures and 3DTEBM for 24 h. Cell proliferation assay was assessed by flow cytometry as previously described. Briefly, drug-media was removed, 3DTEBM were digested and cells of 2D cultures detached by pipetting. Effect of drug treatment in MM1s-GFP cells was measured and normalized to non-treated conditions.
Finally, the effect of increasing concentrations of bortezomib on the survival of MM1s cells grown in mono-culture or multi-culture in 3DTEBM and 2D cultures was measured.

Experiment [2] deals with MM1s cells. Nature of the experiment: Effect of ECM component fibronectin on growth of MM cells inside 3DTEBM, by flow cytometry. In kind it is cell-based. Particulars: 100 ng/ml, day 3. As to the method: For flow cytometry analysis, an internal control (MM1s-calcein violet) was added and a minimum of 5,000 events were acquired using BD FACS Aria (BD Biosciences) and DiVa v6.1.2 software. The data was analyzed using FlowJo program v10 (Ashland, Oreg.). MM cells or CD138^+ cells were identified by gating cells with a high GFP/DiO signal (excitement, 488 nm; filter, 530/30 nm); Hs5 stroma or CD138-stromal cells were identified by gating cells with a high DiD signal (excitement, 638 nm; filter, 660/20 nm); HUVECs were identified by gating cells with a high DiI signal (excitement, 488 nm; filter, 585/15 nm); and MM1s cells control were identified by gating cells with a high UV signal (excitement, 355 nm; filter, 450/50 nm). A 3DTEBM was digested with type I collagenase at 25 mg/ml for 2 h at 37° C. Classic bi-dimensional (2D) cultures were washed with PBS and removed by pipetting. The effect of cell density (5×10^3-50×10^3 cells/well) of MM1s-GFP, Hs5 stroma-DiD, CD138− stromal cells-DiD, and HUVECs-DiI on growth rate in mono-cultures at day 3 inside 3DTEBM was measured by flow cytometry. […]
A general note: A flow cytometer gives signals particle by particle.

With `CC(C)C[C@H](NC(=O)[C@H](Cc1ccccc1)NC(=O)c1cnccn1)B(O)O` [bortezomib], the half-maximal inhibitory concentration (IC50) (usually the point on the concentration scale where inhibition reaches its midpoint) in the experiment on MM1s cells [1] (3DTEBM mono-culture) is 15 to 20 nM; in the experiment on MM1s cells [1] (3DTEBM multi-culture (CD138- stromal cells, HUVECs, fibronectin)) it was approximately 25 nM; in the experiment on MM1s cells [1] (classic 2D mono-culture) it was approximately 5 nM; in the experiment with MM1s cells [1] (classic 2D multi-culture (CD138- stromal cells, HUVECs, fibronectin)), approximately 7 nM.

For fibronectin, the “increase of growth of MM cells in 3DTEBM” value in the experiment with MM1s cells [2] is “about 25%”.
